Consider 27 substances from US6258790A, “Antisense modulation of integrin α4 expression” (Isis Pharmaceuticals, Inc., priority 1999, dated 2001).

Values joined by “and” are separate entries in the source; they are usually repeats but may differ in a detail not shown here. Identical values can stand only once.

The subject of one data set is murine integrin α4 mRNA. Kind of data set: Antisense inhibition of murine integrin α4 mRNA expression in P388D (IL-1) macrophage cells (RNA gel, PCR-labeled probe). As to conditions: Table 8; P388D (IL-1) cells; 100 nM, 3 ug/ml lipofectin. It is filed as cell-based, mouse. How it is done:
Oligonucleotides were initially screened in murine P388D (IL-1) macrophage cells (American Type Culture Collection, Manassas Va.) for 4 hours at an oligonucleotide concentration of 100 nM in 3 ug/ml lipofectin.

The next data set deals with murine integrin α4. Kind of data set: Antisense inhibition of murine integrin α4 protein expression in IC-21 macrophage cells (flow cytometry, CD49d-PE). The data set is classed as cell-based, mouse. As to conditions: for % Control (integrin α4 protein) / % Inhib (integrin α4 protein): Table 11. How it is done: Murine IC-21 macrophage cells (American Type Culture Collection, Manassas, Va.) were used for further study. Additional oligonucleotides were designed to target murine integrin α4. These are shown in Table 10; all 2' MOE nucleotides are shown in bold and remaining positions are 2' deoxy. All 2'-MOE cytosines in these compounds are 5' methylcytosines. IC-21 cells were seeded at 5×10^4 cell/well plates two days before assay. […] Wells were triplicates.
Cells (triplicates) were seeded at 2.5×10^4 cells/well in 24-well plates the day before treatment. Oligonucleotide concentrations were 0.2, 1, 5, 25 and 50 nM in 3 ug/ml LIPOFECTIN. Cells were harvested with 2 mM EDTA for 4 minutes, then 1 ml of 2% BSA, 0.2% azide was added per contents of each well.
IC-21 cells were treated with 0.3, 1, 3, 10 and 30 nM oligonucleotide with 3 ug/ml LIPOFECTIN for 4 hours. Cells were incubated for 24 hours, harvested with trypsin, stained with 2 ug/ml CD49d-PE and rat IgG2B as in previous examples.
These compounds were tested for ability to inhibit integrin α4 protein expression.
On the technique in general: A flow cytometer gives signals particle by particle.

Data set [1] deals with human integrin α4. Description: Integrin α4 protein expression in A375 cells after electroporation of oligonucleotide (flow cytometry). The following applies: 24 hours. The data set is classed as cell-based. How it is done: A375 cells were treated with ISIS 107245, 107248, 107252, 107255 and 107259 by electroporation at 175 volts, r=1, c=1000, 0.2 ml Opti-MEM, 1×10^6 cells /ml, 2 mm gap electrode using a BTX Electro Cell Manipulator 600 (Genetronics, San Diego Calif.). Oligonucleotide concentrations were 1, 3, 10 and 30 μM. Cells were harvested 24 hours after oligonucleotide treatment and strained with 2 ug/ml CD49d-FITC for flow cytometry as in the previous examples.
ISIS 107248 was compared directly to ISIS 27104 for ability to inhibit integrin α4 expression in A375 melanoma cells. Oligonucleotides were electroporated into cells as in the previous example.

Data set [2] has as its system human integrin α4. Description: Inhibition of human integrin α4 protein levels by antisense oligonucleotides (LIPOFECTIN, flow cytometry with CD49d-FITC) in A375 melanoma cells. It is filed as cell-based. The following applies: Table 24; A375 cells; lipofectin; as Example 8.
The mark [3] stands for this setting: IC-21 cells, 25 nM, triplicates.
The mark [4] stands for this setting: IC-21 cells, 25 nM, triplicates, 0.025 µM.

As to “15600 (antisense CACGCCCCGTTTCTGTGGCC; phosphorothioate, 2'-MOE, further chemistry not given here) [compound 15600]”, in the data set on murine integrin α4 mRNA, the “% Control (murine integrin α4 mRNA)” value came out at 93% and the “% Inhib (murine integrin α4 mRNA)” value is given as 07%.

For the substance “15601 (antisense CACGCCCCGTTTCTGTGGCC; phosphodiester, 2'-MOE, further chemistry not given here) [compound 15601]”, in the data set with murine integrin α4 mRNA, the “% Control (murine integrin α4 mRNA)” value was found to be 60% and the “% Inhib (murine integrin α4 mRNA)” value is 40%.

As to “15602 (antisense CACGCCCCGTTTCTGTGGCC; phosphorothioate DNA, further chemistry not given here) [compound 15602]”, in the data set on murine integrin α4 mRNA, the “% Control (murine integrin α4 mRNA)” value is reported as 48% and the “% Inhib (murine integrin α4 mRNA)” value was determined as 52%.

“15603 (antisense GGATGCTTCAGGCTCTGGCC; phosphorothioate DNA, further chemistry not given here) [compound 15603]”: in the data set with murine integrin α4 mRNA, the “% Control (murine integrin α4 mRNA)” value is listed as 38% and the “% Inhib (murine integrin α4 mRNA)” value is recorded as 62%.

As to “15604 (antisense GGAGCGATCGTAGTGGCCAG; phosphorothioate DNA, further chemistry not given here) [compound 15604]”, in the data set with murine integrin α4 mRNA, the “% Control (murine integrin α4 mRNA)” value was 134%.

“15605 (antisense CCGGTGCTGGCAGGCGACAG; phosphorothioate DNA, further chemistry not given here) [compound 15605]”: in the data set on murine integrin α4 mRNA, the “% Control (murine integrin α4 mRNA)” value was 84% and the “% Inhib (murine integrin α4 mRNA)” value is on record as 16%.

Regarding “15606 (antisense GATGAAGTGCAGCAGCGTGT; phosphorothioate DNA, further chemistry not given here) [compound 15606]”, in the data set with murine integrin α4 mRNA, the “% Control (murine integrin α4 mRNA)” value came out at 72% and the “% Inhib (murine integrin α4 mRNA)” value was found to be 28%.

With “16428 (antisense GGCCACTGACCAGAGTTGCA; phosphorothioate, 2'-MOE/deoxy gapmer, further chemistry not given here) [compound 16428]”, in the data set on murine integrin α4 (setting [3]), the “% Control (integrin α4 protein)” value was 67% and the “% Inhib (integrin α4 protein)” value turned out to be 33%.

As for “16429 (antisense GGCCACTGACCAGAGTTGCA; phosphorothioate, 2'-MOE/deoxy gapmer, further chemistry not given here) [compound 16429]”, in the data set on murine integrin α4 (setting [3]), the “% Control (integrin α4 protein)” value is 60% and the “% Inhib (integrin α4 protein)” value was 40%.

On to “16430 (antisense GGCCACTGACCAGAGTTGCA; phosphorothioate, 2'-MOE/deoxy gapmer, further chemistry not given here) [compound 16430]”, for which the “% Control (integrin α4 protein)” value in the data set on murine integrin α4 (setting [3]) is 50%. The “% Inhib (integrin α4 protein)” value with murine integrin α4 (setting [4]) is 50% and > 50%.

As to “16431 (CCGCAGCCATGCGCTCTTGG; phosphorothioate, 2'-MOE/deoxy, further chemistry not given here) [compound 16431]”, the IC50 – broadly, the concentration that gives 50% inhibition – with murine integrin α4 (IC-21 cells) was around 1 nM. The “% Control (integrin α4 protein)” value with murine integrin α4 (setting [3]) stood at 35%. The “% Inhib (integrin α4 protein)” value in the data set with murine integrin α4 (setting [4]) is 65% and > 50%. The “% Inhib.” value in the data set with murine integrin α4 (Table 12, 0.2 nM, triplicates) came to 18%; with murine integrin α4 (Table 12, 1 nM, triplicates), 43%; in the data set on murine integrin α4 (Table 12, 5 nM, triplicates), 66%; with murine integrin α4 (Table 12, 25 nM, triplicates), 68%; with murine integrin α4 (Table 12, 50 nM, triplicates), 70%. For the same substance, the “% of control” value in the data set on murine integrin α4 (Table 12, 0.2 nM, triplicates) turned out to be 82%; in the data set with murine integrin α4 (Table 12, 1 nM, triplicates) it was 57%; in the data set with murine integrin α4 (Table 12, 5 nM, triplicates) it was 34%; in the data set with murine integrin α4 (Table 12, 25 nM, triplicates), 32%; with murine integrin α4 (Table 12, 50 nM, triplicates), 30%.

Turning to “16432 (CCGCAGCCATGCGCTCTTGG; phosphorothioate, 2'-MOE/deoxy, further chemistry not given here) [compound 16432]”, in the data set with murine integrin α4 (setting [3]), the “% Control (integrin α4 protein)” value turned out to be 53% and the “% Inhib (integrin α4 protein)” value was 47%.

For “16434 (CACCTCGCTTCCGCAGCCAT; phosphorothioate, 2'-MOE/deoxy, further chemistry not given here) [compound 16434]”, in the data set on murine integrin α4 (setting [3]), the “% Control (integrin α4 protein)” value was determined as 33%. In addition, the “% Inhib (integrin α4 protein)” value in the data set with murine integrin α4 (setting [4]) was 67% and > 50%.

Turning to “16435 (CACCTCGCTTCCGCAGCCAT; phosphorothioate, 2'-MOE/deoxy, further chemistry not given here) [compound 16435]”, in the data set with murine integrin α4 (setting [3]), the “% Control (integrin α4 protein)” value amounted to 30%. For the same substance, in the data set with murine integrin α4 (setting [4]), the “% Inhib (integrin α4 protein)” value is 70% and > 50%.

With “16436 (CACCTCGCTTCCGCAGCCAT; phosphorothioate, 2'-MOE/deoxy, further chemistry not given here) [compound 16436]”, the “% Control (integrin α4 protein)” value in the data set on murine integrin α4 (setting [3]) was 47%. Besides, in the data set on murine integrin α4 (setting [4]), the “% Inhib (integrin α4 protein)” value was 53% and > 50%.

Take “16437 (CGCTTCCGCAGCCATGCGCT; phosphorothioate, 2'-MOE/deoxy, further chemistry not given here) [compound 16437]”: the “% Control (integrin α4 protein)” value with murine integrin α4 (setting [3]) turned out to be 36%. For the same substance, in the data set with murine integrin α4 (setting [4]), the “% Inhib (integrin α4 protein)” value is 64% and > 50%.

Consider “16477 (CGGACCAGTACCAGGGTTAC; phosphorothioate, 2'-deoxy, further chemistry not given here) [compound 16477]”, for which the “% Control (integrin α4 protein)” value in the data set on murine integrin α4 (setting [3]) is listed as 96%.

In the case of “16479 (ACCTCCTCGCTCACGCGCTA; phosphorothioate DNA, further chemistry not given here) [compound 16479]”, the “% Control (integrin α4 protein)” value with murine integrin α4 (setting [3]) is 96%.

For the substance “17045 (CCGCAGCCATGCGCTCTTGG; phosphorothioate, 2'-modified, further chemistry not given here) [compound 17045]”, the “% Control” value in the data set on murine integrin α4 (Table 16, 0.3 nM) is reported as 109%; in the data set with murine integrin α4 (Table 16, 1 nM), 65%; in the data set on murine integrin α4 (Table 16, 3 nM), 34%; in the data set on murine integrin α4 (Table 16, 10 nM), 12%. In addition, the “% Inhib.” value was found to be 35% in the data set on murine integrin α4 (Table 16, 1 nM); 66% with murine integrin α4 (Table 16, 3 nM); 88% in the data set with murine integrin α4 (Table 16, 10 nM).

Consider “17046 (CCGCAGCCATGCGCTCTTGG; phosphorothioate, 2'-modified, further chemistry not given here) [compound 17046]”, for which the “% Control” value in the data set on murine integrin α4 (Table 16, 0.3 nM) is 161%; with murine integrin α4 (Table 16, 1 nM), 123%; in the data set on murine integrin α4 (Table 16, 3 nM), 125%; in the data set on murine integrin α4 (Table 16, 10 nM), 75%. Further, in the data set with murine integrin α4 (Table 16, 10 nM), the “% Inhib.” value came to 25%.

For the substance “17047 (CCGCAGCCATGCGCTCTTGG; phosphorothioate, 2'-modified, further chemistry not given here) [compound 17047]”, the “% Control” value in the data set on murine integrin α4 (Table 16, 0.3 nM) is given as 132%; in the data set with murine integrin α4 (Table 16, 1 nM), 107%; with murine integrin α4 (Table 16, 3 nM), 77%; with murine integrin α4 (Table 16, 10 nM) it was 36%. In addition, the “% Inhib.” value is 23% with murine integrin α4 (Table 16, 3 nM) and 67% in the data set with murine integrin α4 (Table 16, 10 nM).

As for “17048 (GCCGACACCCGTTCGTTCGG; phosphorothioate, 2'-modified, further chemistry not given here) [compound 17048]”, the “% Control” value in the data set with murine integrin α4 (Table 16, 0.3 nM) was 159%; with murine integrin α4 (Table 16, 1 nM) it was 159%; with murine integrin α4 (Table 16, 3 nM) it was 150%; in the data set on murine integrin α4 (Table 16, 10 nM), 119%.

Take “107245 (antisense GTTGATATAACTCCAACTGT; chemistry not given here) [compound 107245]”: the “% Control” value in the data set with human integrin α4 [1] (Table 25, 1 nM as printed) is listed as 27.1%; in the data set with human integrin α4 [1] (Table 25, 10 nM) it was 64.4%; in the data set with human integrin α4 [1] (Table 25, 30 nM), 30.3%; in the data set with human integrin α4 [2], 35%.

As to “107252 (antisense AAGAGTAATCATTGCTGAGA; chemistry not given here) [compound 107252]”, the “% Control” value with human integrin α4 [1] (Table 25, 1 nM as printed) was 17.4%; in the data set on human integrin α4 [1] (Table 25, 10 nM), 7.9%; with human integrin α4 [1] (Table 25, 30 nM), 2.9%; with human integrin α4 [2], 35%.

On to “107255 (antisense AAGTCTAAGACTTCTCCAGT; chemistry not given here) [compound 107255]”, for which the “% Control” value in the data set on human integrin α4 [1] (Table 25, 1 nM as printed) stood at 50.6%; in the data set on human integrin α4 [1] (Table 25, 10 nM), 22.9%; with human integrin α4 [1] (Table 25, 30 nM), 19.4%; with human integrin α4 [2], 36%.

With “107259 (antisense GGAACACAGCCCGTAGGAAA; chemistry not given here) [compound 107259]”, the “% Control” value in the data set on human integrin α4 [1] (Table 25, 1 nM as printed) came to 17.7%; in the data set on human integrin α4 [1] (Table 25, 10 nM), 42.9%; in the data set with human integrin α4 [1] (Table 25, 30 nM), 19.4%; in the data set on human integrin α4 [2] it was 37%.

With “107260 (antisense TTTGCCAGTTTGGCCTATAA; chemistry not given here) [compound 107260]”, in the data set on human integrin α4 [2], the “% Control” value turned out to be 50%.
